Assay results published in patent publication US9073855B2, “BCL-2 selective apoptosis-inducing agents for the treatment of cancer and immune diseases” (AbbVie Inc., priority 2008, dated 2015).

Tests used:
GST-Bcl-2 = GST-Bcl-2 (Homo sapiens, UniProt P10415); experiment: TR-FRET binding assay, GST-Bcl-2 with F-Bak peptide probe; details: TR-FRET Binding Affinity, GST-Bcl-2, F-Bak peptide probe
Outline: (§1)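 Ki was derived with Wang's equation for competitive binding of two ligands. The read-out was time-resolved fluorescence after a 3 h room-temperature incubation, using a Tb-labelled antibody donor and the F-Bak peptide acceptor (excitation 340/35 nm). Test compounds entered as DMSO serial dilutions starting at 50 μM, which was the 2× concentration.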

GST-Bcl-XL = GST-Bcl-XL (Homo sapiens, UniProt Q07817); experiment: TR-FRET binding assay, GST-Bcl-XL with F-Bak peptide probe; details: TR-FRET Binding Affinity, GST-Bcl-XL, F-Bak peptide probe
Outline: as §1

Canine platelets = experiment: Platelet cell viability assay (platelet-rich plasma, Cell Titer Glo); format: cell-based; details: Canis lupus familiaris, 5 h, isolated canine platelets ex vivo, five hours at 37° C.
Outline: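 Isolated canine platelets were incubated ex vivo with a range of compound concentrations. After 20 min equilibration at room temperature, viability was measured by Cell Titer Glo luminescence.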

FL5.12/Bcl-2 cells = experiment: FL5.12/Bcl-2 cell viability assay under IL-3 withdrawal (CellTitre Glo); format: cell-based, murine; details: Mus musculus, IL-3 withdrawn 48 hrs, then 24 hrs with compound
Outline: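 IL-3 withdrawal 48 hrs (no WEHI-3B medium), then compound 24 hrs, various concentrations; 37° C, 5% CO2; readout CellTitre Glo. Murine prolymphocytic FL5.12 stably overexpressing Bcl-2.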

GST-Bcl-XL, sequence (Q07817 whole entry): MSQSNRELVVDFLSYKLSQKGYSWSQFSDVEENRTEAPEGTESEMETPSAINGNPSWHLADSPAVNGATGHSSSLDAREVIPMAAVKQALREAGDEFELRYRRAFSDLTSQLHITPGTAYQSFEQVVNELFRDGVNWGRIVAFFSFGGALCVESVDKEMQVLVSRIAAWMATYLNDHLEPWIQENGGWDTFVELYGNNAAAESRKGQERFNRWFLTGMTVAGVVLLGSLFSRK
GST-Bcl-2, sequence (P10415 whole entry): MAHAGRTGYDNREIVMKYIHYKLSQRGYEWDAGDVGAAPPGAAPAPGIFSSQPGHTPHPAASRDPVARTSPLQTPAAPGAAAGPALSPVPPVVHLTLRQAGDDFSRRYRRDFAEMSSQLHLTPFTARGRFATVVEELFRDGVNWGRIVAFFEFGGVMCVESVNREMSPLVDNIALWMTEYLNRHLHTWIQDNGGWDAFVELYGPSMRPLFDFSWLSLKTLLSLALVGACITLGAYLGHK

Row | Compound | Ki (GST-Bcl-2) [nM] | Ki (GST-Bcl-XL) [nM] | EC50 (Canine platelets) [nM] | EC50 (FL5.12/Bcl-2 cells) [nM]
1 | CN1CCC(Nc2ccc(S(=O)(=O)NC(=O)c3ccc(N4CCN(CC5=C(c6ccc(Cl)cc6)CC(C)(C)CC5)CC4)cc3Oc3ccc4c(c3)CCCN4)cc2[N+](=O)[O-])CC1 [Example 23, 4-(4-{[2-(4-chlorophenyl)-4,4-dimethylcyclohex-1-en-1-yl]methyl}piperazin-1-yl)-N-({4-[(1-methylpiperidin-4-yl)amino]-3-nitrophenyl}sulfonyl)-2-(1,2,3,4-tetrahydroquinolin-6-yloxy)benzamide] | 6.64 | 168 | > 50000 | 1440
2 | CN(C)CCOc1ccc(-c2ccc(Cl)cc2)c(CN2CCN(c3ccc(C(=O)NS(=O)(=O)c4ccc(NC5CCN(C)CC5)c([N+](=O)[O-])c4)c(Oc4ccccc4)c3)CC2)c1 [Example 133, 4-[4-({4′-chloro-4-[2-(dimethylamino)ethoxy]-1,1′-biphenyl-2-yl}methyl)piperazin-1-yl]-N-({4-[(1-methylpiperidin-4-yl)amino]-3-nitrophenyl}sulfonyl)-2-phenoxybenzamide] | 0.009 | 0.281 | 95 | 20
3 | CC1(C)CCC(CN2CCN(c3ccc(C(=O)NS(=O)(=O)c4ccc(NCCCN5CCCC5)c([N+](=O)[O-])c4)c(Oc4cccc5[nH]ccc45)c3)CC2)=C(c2ccc(OC(F)(F)F)cc2)C1 [Example 70, 4-[4-({4,4-dimethyl-2-[4-(trifluoromethoxy)phenyl]cyclohex-1-en-1-yl}methyl)piperazin-1-yl]-2-(1H-indol-4-yloxy)-N-({3-nitro-4-[(3-pyrrolidin-1-ylpropyl)amino]phenyl}sulfonyl)benzamide] | 1.19 | 74.4 | > 50000 | 111
4 | CC1(C)CCC(CN2CCN(c3ccc(C(=O)NS(=O)(=O)c4ccc(NC5CCN(C6CCCC6)CC5)c([N+](=O)[O-])c4)c(Oc4ccc5[nH]ccc5c4)c3)CC2)=C(c2ccc(Cl)cc2)C1 [Example 26, 4-(4-{[2-(4-chlorophenyl)-4,4-dimethylcyclohex-1-en-1-yl]methyl}piperazin-1-yl)-N-({4-[(1-cyclopentylpiperidin-4-yl)amino]-3-nitrophenyl}sulfonyl)-2-(1H-indol-5-yloxy)benzamide] | 0.14 | > 660 | > 50000 | 35
5 | CN1CCC(Nc2ccc(S(=O)(=O)NC(=O)c3ccc(N4CCN(Cc5ccccc5-c5ccc(Cl)cc5)CC4)cc3Oc3ccccc3)cc2[N+](=O)[O-])CC1 [Example 89, 4-{4-[(4′-chloro-1,1′-biphenyl-2-yl)methyl]piperazin-1-yl}-N-({4-[(1-methylpiperidin-4-yl)amino]-3-nitrophenyl}sulfonyl)-2-phenoxybenzamide] | 0.129 | 7.45 | 32000 | 65
6 | CC1(C)CCC(CN2CCN(c3ccc(C(=O)NS(=O)(=O)c4ccc(NCCCN5CCOCC5)c([N+](=O)[O-])c4)c(Oc4ccc5[nH]ccc5c4)c3)CC2)=C(c2ccc(Cl)cc2)C1 [Example 52, 4-(4-{[2-(4-chlorophenyl)-4,4-dimethylcyclohex-1-en-1-yl]methyl}piperazin-1-yl)-2-(1H-indol-5-yloxy)-N-({4-[(3-morpholin-4-ylpropyl)amino]-3-nitrophenyl}sulfonyl)benzamide] | 0.239 | 79.8 | > 50000 | 16
7 | CN(C)CCCNc1ccc(S(=O)(=O)NC(=O)c2ccc(N3CCN(Cc4ccccc4-c4ccc(Cl)cc4)CC3)cc2Oc2ccc3ccccc3c2)cc1[N+](=O)[O-] [Example 166, 4-{4-[(4′-chloro-1,1′-biphenyl-2-yl)methyl]piperazin-1-yl}-N-[(4-{[3-(dimethylamino)propyl]amino}-3-nitrophenyl)sulfonyl]-2-(2-naphthyloxy)benzamide] | 0.459 | 3.27 | > 50000 | 153
8 | CN1CCC(Nc2ccc(S(=O)(=O)NC(=O)c3ccc(N4CCN(CC5=C(c6ccc(Cl)cc6)CC(C)(C)CC5)CC4)cc3Oc3ccc4[nH]ccc4c3)cc2S(=O)(=O)C(F)(F)Cl)CC1 [Example 74, N-({3-{[chloro(difluoro)methyl]sulfonyl}-4-[(1-methylpiperidin-4-yl)amino]phenyl}sulfonyl)-4-(4-{[2-(4-chlorophenyl)-4,4-dimethylcyclohex-1-en-1-yl]methyl}piperazin-1-yl)-2-(1H-indol-5-yloxy)benzamide] | 0.02 | 25.2 | 16700 | 8
9 | CN(C)CCOc1cccc(-c2ccc(Cl)cc2)c1CN1CCN(c2ccc(C(=O)NS(=O)(=O)c3ccc(NCCCN4CCCC4)c([N+](=O)[O-])c3)c(Oc3ccc4[nH]ccc4c3)c2)CC1 [Example 134, 4-[4-({4′-chloro-3-[2-(dimethylamino)ethoxy]-1,1′-biphenyl-2-yl}methyl)piperazin-1-yl]-2-(1H-indol-5-yloxy)-N-({3-nitro-4-[(3-pyrrolidin-1-ylpropyl)amino]phenyl}sulfonyl)benzamide] | 0.052 | 18 | 4720 | 48
10 | O=C(NS(=O)(=O)c1ccc(NCC2CCOCC2)c([N+](=O)[O-])c1)c1ccc(N2CCN(Cc3c(OCCN4CCOCC4)cccc3-c3ccc(Cl)cc3)CC2)cc1Oc1ccc2[nH]ccc2c1 [Example 132, 4-(4-{[4′-chloro-3-(2-morpholin-4-ylethoxy)-1,1′-biphenyl-2-yl]methyl}piperazin-1-yl)-2-(1H-indol-5-yloxy)-N-({3-nitro-4-[(tetrahydro-2H-pyran-4-ylmethyl)amino]phenyl}sulfonyl)benzamide] | 0.553 | 315 | > 50000 | 42
11 | CN1CCC(CNc2ccc(S(=O)(=O)NC(=O)c3ccc(N4CCN(Cc5ccccc5-c5ccc(Cl)cc5)CC4)cc3Oc3ccccc3)cc2[N+](=O)[O-])CC1 [Example 88, 4-{4-[(4′-chloro-1,1′-biphenyl-2-yl)methyl]piperazin-1-yl}-N-[(4-{[(1-methylpiperidin-4-yl)methyl]amino}-3-nitrophenyl)sulfonyl]-2-phenoxybenzamide] | 0.069 | 4.64 | 19900 | 32
12 | O=C(NS(=O)(=O)c1ccc(NCCCN2CCOCC2)c([N+](=O)[O-])c1)c1ccc(N2CCN(Cc3ccccc3-c3ccc(Cl)cc3)CC2)cc1Oc1ccccc1 [Example 155, 4-{4-[(4′-chloro-1,1′-biphenyl-2-yl)methyl]piperazin-1-yl}-N-({4-[(3-morpholin-4-ylpropyl)amino]-3-nitrophenyl}sulfonyl)-2-phenoxybenzamide] | 0.484 | 37.7 | > 50000 | 421
13 | CN1CCN(CCCNc2ccc(S(=O)(=O)NC(=O)c3ccc(N4CCN(CC5=C(c6ccc(Cl)cc6)CC(C)(C)CC5)CC4)cc3Oc3ccc4[nH]ccc4c3)cc2[N+](=O)[O-])CC1 [Example 96, 4-(4-{[2-(4-chlorophenyl)-4,4-dimethylcyclohex-1-en-1-yl]methyl}piperazin-1-yl)-2-(1H-indol-5-yloxy)-N-[(4-{[3-(4-methylpiperazin-1-yl)propyl]amino}-3-nitrophenyl)sulfonyl]benzamide] | 0.047 | 8.78 | 22300 | 11
